Laboratory results taken from PubChem BioAssay (NCI).
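Values below derive from 48-hour exposures of cells grown in 96-well plates, with endpoints linearly interpolated between the two concentrations bracketing the appropriate inhibition level. The concentration for 50% growth inhibition is given as GI50. At the TGI there is no net growth.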

What was measured:
Assay in all cases: NCI tumour cell line growth inhibition, 48 h
MCF7 breast = tested on: MCF7 breast
BT-549 breast = tested on: BT-549 breast
MDA-N = tested on: MDA-N
T-47D breast = tested on: T-47D breast
DMS 114 small cell lung = tested on: DMS 114 small cell lung
DMS 273 small cell lung = tested on: DMS 273 small cell lung
SNB-78 CNS = tested on: SNB-78 CNS
RXF-631 renal = tested on: RXF-631 renal
XF 498 CNS = tested on: XF 498 CNS

Compound | TGI (MCF7 breast) [µM] | TGI (BT-549 breast) [µM] | TGI (MDA-N) [µM] | TGI (T-47D breast) [µM] | GI50 (MCF7 breast) [nM] | GI50 (BT-549 breast) [µM] | GI50 (T-47D breast) [nM] | TGI (DMS 114 small cell lung) [µM] | TGI (DMS 273 small cell lung) [µM] | TGI (SNB-78 CNS) [µM] | TGI (RXF-631 renal) [µM] | TGI (XF 498 CNS) [µM]
Nc1nc(N)c(N=Nc2ccc(C(=O)O)c(O)c2)c(N)n1 | > 100 | > 100 | > 100 | – | – | – | – | – | – | – | – | –
C=C1NC(=O)C(CC(C(=O)C(=O)Nc2c(C)cccc2C(C)(C)C)C(=O)c2ccc3ccccc3c2)C(=O)N1 (stereo unspecified) | > 100 | > 100 | > 100 | > 100 | – | – | – | – | – | – | – | –
Cc1cc(NNC(=O)c2ccccc2O)nc(Nc2nc3ccccc3o2)n1 | 20.7 | 28.2 | – | 21.5 | 1880 | 4.52 | 2920 | – | – | – | – | –
Cc1cn2c(/C=C3/C(=O)Nc4ccc(F)cc43)c(C)nc2s1 | > 50 | > 50 | – | > 50 | 1920 | 8.52 | 10200 | – | – | – | – | –
CC[C@@H](C)Nc1cc(C(=O)NC2CC3CCC(C2)N3c2ccc(C(=O)C3CC3)cn2)c(C)cc1C(N)=O (stereo partly specified) | > 59.6 | > 84.9 | – | 36 | < 17.2 | 5.54 | 37.8 | – | – | – | – | –
O=C(Nc1cccc(Cl)c1)c1cc(N=Nc2ccc([N+](=O)[O-])cc2Cl)ccc1O | 5.79 | 7.31 | – | 5.57 | 2030 | 2.35 | 1620 | – | – | – | – | –
CCCCCCCCCCCCCC(=O)OCC1OC(n2cc(F)c(=O)[nH]c2=O)C(N)C(OC(=O)CCCCCCCCCCCCC)C1O (stereo unspecified) | – | – | – | – | – | – | – | > 100 | > 100 | > 100 | – | –
COC(=O)C(C(=O)C(=O)Nc1ccc(OC)cc1[N+](=O)[O-])c1nc2cc(C)c(C)cc2[nH]c1=O (stereo unspecified) | – | – | – | – | – | – | – | > 100 | – | > 100 | > 100 | –
CC(C)CCC(=O)[C@@H](C)[C@H]1[C@@H](OC2OCC(O)C(O)C2NS(C)(=O)=O)C[C@H]2[C@@H]3CC=C4C[C@@H](O)CC[C@]4(C)[C@H]3CC[C@]12C (stereo partly specified) | 5.73 | 4.93 | – | 23 | 1260 | 0.245 | 3930 | – | – | – | – | –
C=C1CCC2C3(C)COC(c4ccc(Cl)cc4)OC3CCC2(C)C1/C=C/C1=CCOC1=O (stereo unspecified) | > 100 | 80.5 | – | 21.4 | 3350 | 4.79 | 821 | – | – | – | – | –
CCOC(=O)NC(=O)c1cn(CCN2CCNCC2)c(=O)[nH]c1=O | – | – | – | – | – | – | – | > 100 | – | > 100 | – | > 100
COc1cc(CC(C(=O)O)C(=O)O)c(OC)cc1CC(C(=O)O)C(=O)O | – | – | – | – | – | – | – | > 100 | > 100 | > 100 | – | > 100
CCOc1c(C#N)c2c(N)ncnc2n1C1OC(CO)C(O)C1O (stereo unspecified) | > 100 | 19 | – | 20.2 | 2450 | 2.58 | 1980 | – | – | – | – | –
O=c1c(-c2ccc(O)cc2)coc2cc(OC3OC(CO)C(O)C(O)C3O)cc(O)c12 (stereo unspecified) | > 100 | > 100 | > 100 | > 100 | > 100000 | – | > 100000 | – | – | – | – | –
O=C(Nc1ccc2c(c1)OCO2)C(=O)c1c[nH]c2cc(F)ccc12 | > 100 | 98.7 | – | > 100 | 6910 | 9.35 | 1750 | – | – | – | – | –
Nc1ccc2c(c1)Oc1c(F)c(F)cc3c(=O)c(C(=O)O)cn-2c13 | – | – | – | – | – | – | – | > 100 | – | – | – | –

Compound | TGI (MCF7 breast) [µM] | TGI (BT-549 breast) [µM] | TGI (MDA-N) [µM] | TGI (T-47D breast) [µM] | GI50 (MCF7 breast) [nM] | GI50 (BT-549 breast) [µM] | GI50 (T-47D breast) [nM] | TGI (DMS 114 small cell lung) [µM] | TGI (DMS 273 small cell lung) [µM] | TGI (SNB-78 CNS) [µM] | TGI (RXF-631 renal) [µM] | TGI (XF 498 CNS) [µM]
CCOC(=O)c1cc(-c2ccc(OC)c(OC)c2)[nH]c1N/N=C/c1c(Cl)cccc1Cl | 17.8 | 12.5 | – | 55.4 | 415 | 2.49 | 5980 | – | – | – | – | –
COC(=O)C1=C(C(=O)OC)C2OC1c1cc3ccccc3cc12 | 59.9 | 12 | 17.5 | 7.49 | – | – | – | – | – | – | – | –
CC(C)(C)NC/C(=C\c1ccccc1)C(=O)c1ccccc1 | 10.4 | 4.39 | – | 8.98 | 1080 | 2.03 | 2190 | – | – | – | – | –
C=C1C(=O)OC2CC3(C)CCCC(C)C3=CC12 (stereo unspecified) | 5.28 | 18.5 | 11.4 | 11 | – | – | – | – | – | – | – | –
O=C(O)CC1CC=C[C@H]2c3cc4c(cc3C(=O)NC12)OCO4 (stereo partly specified) | – | – | – | – | – | – | – | > 75 | > 75 | > 75 | – | –
Cc1cc(C)nc(NS(=O)(=O)c2ccc(NC(=O)c3ccc(Cl)c4c(Nc5ccc(S(=O)(=O)N=C(N)N)cc5)c5ccccc5nc34)cc2)n1 | – | – | – | – | – | – | – | 93.6 | > 100 | > 100 | – | > 100
COc1ccc(/C=c2/sc3n(c2=O)NC(c2ccc(Cl)cc2)NN=3)cc1 (stereo unspecified) | – | – | – | – | – | – | – | > 100 | > 100 | > 100 | – | > 100
COc1cc2ncn(-c3cc(OCc4ccccc4C(F)(F)F)c(C(C)=O)s3)c2cc1OC | > 25 | > 25 | – | > 25 | > 25000 | > 25 | > 25000 | – | – | – | – | –
CC(O)CN1c2ccccc2Sc2ccc(Cl)cc21 (stereo unspecified) | > 10 | > 10 | > 10 | > 10 | – | – | – | – | – | – | – | –
CC(=O)O/N=C(Cl)/C(Cl)=N/OC(C)=O | – | – | – | – | – | – | – | > 100 | > 100 | > 100 | – | > 100
Cc1ccc(/C=C(\C#N)c2ccccc2)cc1 | – | – | – | – | – | – | – | > 100 | > 100 | > 100 | – | –
Cc1nc(Nc2ccccc2)sc1C(=O)CC(=O)C(=O)NC12CC3CC(CC(C3)C1)C2 | – | – | – | – | – | – | – | > 100 | > 100 | > 100 | – | > 100
NNC(=S)Nc1cccc(Cl)c1 | > 100 | > 100 | > 100 | > 100 | – | – | – | – | – | – | – | –
O=C(NN1C(=O)CSC12CCCC2)C(O)c1ccccc1 (stereo unspecified) | > 100 | > 100 | – | > 100 | > 100000 | > 100 | > 100000 | – | – | – | – | –
O=C(Cn1c(C(=O)c2ccccc2)nc2ccccc21)c1ccc(F)cc1 | > 72 | > 100 | – | > 100 | 3270 | 9.76 | 3380 | – | – | – | – | –
COc1ccc(C[C@H](N)C(=O)N2C[C@@H](CO)C[C@@H](n3cnc4c(N(C)C)ncnc43)C2)cc1 | – | – | – | – | – | – | – | > 100 | > 100 | > 100 | – | –
